Results taken from ChEMBL document CHEMBL2321830 (J Med Chem, 2013).
Where a chain is given by its changes, count along the chain named.

Legend:
[1] = molecular target: T1, Aldo-keto reductase family 1 member C3 (Homo sapiens, UniProt P42330); experiment: Inhibition of human recombinant AKR1C3-mediated NADP+-dependent oxidation of S-(+)-1,2,3,4-tetrahydro-1-naphthol
T1 sequence (P42330 whole entry): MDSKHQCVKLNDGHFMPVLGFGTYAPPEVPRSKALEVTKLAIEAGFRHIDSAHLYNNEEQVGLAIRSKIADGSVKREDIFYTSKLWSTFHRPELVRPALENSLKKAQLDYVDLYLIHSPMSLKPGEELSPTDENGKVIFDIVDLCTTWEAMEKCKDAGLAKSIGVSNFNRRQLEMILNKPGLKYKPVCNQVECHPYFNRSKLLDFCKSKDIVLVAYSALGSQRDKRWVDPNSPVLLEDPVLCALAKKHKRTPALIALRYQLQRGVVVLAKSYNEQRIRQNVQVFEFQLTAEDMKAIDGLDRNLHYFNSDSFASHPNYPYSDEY

[2] = molecular target: T2, Aldo-keto reductase family 1 member C2 (Homo sapiens, UniProt P52895); experiment: Inhibition of human recombinant AKR1C2-mediated NADP+-dependent oxidation of S-(+)-1,2,3,4-tetrahydro-1-naphthol
T2 sequence (P52895 whole entry): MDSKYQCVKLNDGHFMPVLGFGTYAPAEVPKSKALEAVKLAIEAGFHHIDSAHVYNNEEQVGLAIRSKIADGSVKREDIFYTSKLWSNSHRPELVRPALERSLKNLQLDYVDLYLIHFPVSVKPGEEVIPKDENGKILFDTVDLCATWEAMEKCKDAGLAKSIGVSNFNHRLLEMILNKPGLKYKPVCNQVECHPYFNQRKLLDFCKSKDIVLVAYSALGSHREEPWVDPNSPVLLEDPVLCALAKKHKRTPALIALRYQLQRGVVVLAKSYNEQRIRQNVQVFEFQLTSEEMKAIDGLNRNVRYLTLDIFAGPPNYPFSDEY

[3] = molecular target: T3, Aldo-keto reductase family 1 member C4 (Homo sapiens, UniProt P17516); experiment: Inhibition of human recombinant AKR1C4-mediated NADP+-dependent oxidation of S-(+)-1,2,3,4-tetrahydro-1-naphthol
T3 sequence (P17516 whole entry): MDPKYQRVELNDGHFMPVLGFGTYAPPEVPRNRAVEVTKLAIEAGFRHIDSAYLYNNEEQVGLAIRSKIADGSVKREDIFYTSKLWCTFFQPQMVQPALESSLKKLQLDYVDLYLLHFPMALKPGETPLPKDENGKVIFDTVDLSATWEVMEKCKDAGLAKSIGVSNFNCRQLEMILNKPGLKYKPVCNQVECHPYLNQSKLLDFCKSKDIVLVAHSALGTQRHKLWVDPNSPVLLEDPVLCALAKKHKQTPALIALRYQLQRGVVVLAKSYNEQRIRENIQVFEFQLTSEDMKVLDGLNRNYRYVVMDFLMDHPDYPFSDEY

[4] = molecular target: T4, Aldo-keto reductase family 1 member C1 (Homo sapiens, UniProt Q04828); experiment: Inhibition of human recombinant AKR1C1-mediated NADP+-dependent oxidation of S-(+)-1,2,3,4-tetrahydro-1-naphthol
T4 sequence (Q04828 whole entry): T2 sequence (P52895 whole entry) with V38T, H47R, V54L, S87C, M151V, H170R, L172Q

SMILES	IC50 [1]	IC50 [2]	IC50 [3]	IC50 [4]
COc1ccc2c(c1)c(CC(=O)O)c(C)n2C(=O)c1ccc(F)cc1	0.71 µM	61 µM	–	–
COc1ccc2c(c1)c(CCC(=O)O)c(C)n2C(=O)c1ccc(Cl)cc1	–	–	> 100 µM	–
COc1ccc2c(c1)c(CC(=O)O)c(C)n2C(=O)c1ccc(C)cc1	–	–	> 100 µM	> 100 µM
COc1ccc2c(c1)c(CC(=O)NS(C)(=O)=O)c(C)n2C(=O)c1ccc(Cl)cc1	2.24 µM	65.4 µM	–	–
COc1ccc(C(=O)n2c(C)c(CC(=O)O)c3cc(OC)ccc32)cc1	0.14 µM	45.1 µM	–	–
COc1ccc2c(c1)c(CC(=O)O)c(C)n2C(=O)c1ccc(C(F)(F)F)cc1	–	–	> 100 µM	> 100 µM
COc1ccc2c(c1)c(CC(=O)O)c(C)n2C(=O)c1cccc(C(F)(F)F)c1	2.44 µM	19.5 µM	–	–
Cc1c(CC(=O)O)c2cc(F)ccc2n1C(=O)c1cccc(C(F)(F)F)c1	2.23 µM	7.84 µM	–	–
COC(=O)Cc1c(C)n(C(=O)c2ccc(C)cc2)c2ccc(OC)cc12	7.54 µM	43.6 µM	–	–
COC(=O)Cc1c(C)n(C(=O)c2ccc(C(F)(F)F)cc2)c2ccc(OC)cc12	15.7 µM	> 100 µM	–	–
COC(=O)Cc1c(C)n(C(=O)c2ccc(OC)cc2)c2ccc(OC)cc12	7.59 µM	> 100 µM	–	–
COc1ccc2c(c1)c(CC(=O)NS(=O)(=O)C(F)(F)F)c(C)n2C(=O)c1ccc(Cl)cc1	–	–	> 100 µM	> 100 µM
Cc1c(CCC(=O)O)c2cc(F)ccc2n1C(=O)c1ccc(Cl)cc1	0.29 µM	13.5 µM	–	–
COc1ccc2c(c1)cc(C)n2C(=O)c1ccc(Cl)cc1	3.56 µM	24 µM	–	–
COC(=O)Cc1cn(C(=O)c2ccc(Cl)cc2)c2ccc(OC)cc12	11.3 µM	> 100 µM	–	–
COc1ccc2c(c1)c(CC(=O)O)cn2C(=O)c1ccc(F)cc1	4.96 µM	> 100 µM	–	–
COc1ccc2c(c1)c(CC(=O)O)cn2C(=O)c1ccc(C(F)(F)F)cc1	1.08 µM	> 100 µM	–	–
COc1ccc2c(c1)c(CC(=O)O)cn2C(=O)c1cccc(C(F)(F)F)c1	5.21 µM	100 µM	–	–
O=C(O)Cc1cn(C(=O)c2ccc(Cl)cc2)c2ccc(F)cc12	0.5 µM	23.3 µM	–	–
COc1ccc2c(c1)c(CC(=O)NS(C)(=O)=O)cn2C(=O)c1ccc(Cl)cc1	12 µM	16.7 µM	–	–
COc1ccc2c(c1)c(CC(=O)NS(=O)(=O)C(F)(F)F)cn2C(=O)c1ccc(Cl)cc1	–	–	> 100 µM	> 100 µM
COc1ccc2c(c1)c(CC(=O)NS(=O)(=O)c1ccc(C)cc1)cn2C(=O)c1ccc(Cl)cc1	12.4 µM	42.7 µM	–	–
COc1ccc2c(c1)c(CC(=O)NS(=O)(=O)c1ccc3ccccc3c1)cn2C(=O)c1ccc(Cl)cc1	1.19 µM	16.8 µM	–	–
COc1ccc2c(c1)c(CC(=O)NS(=O)(=O)c1ccccc1C)cn2C(=O)c1ccc(Cl)cc1	8.82 µM	15.3 µM	–	–
COc1ccc2c(c1)c(CC(=O)NS(=O)(=O)c1ccc(C(F)(F)F)cc1)cn2C(=O)c1ccc(Cl)cc1	2.07 µM	38.2 µM	–	–
COc1ccc2c(c1)c(CC(=O)NS(=O)(=O)c1ccc(OC(F)(F)F)cc1)cn2C(=O)c1ccc(Cl)cc1	2.65 µM	59.4 µM	–	–

SMILES	IC50 [1]	IC50 [2]	IC50 [3]	IC50 [4]
COc1ccc2c(c1)c(CC(=O)NS(=O)(=O)c1ccc(Cl)s1)cn2C(=O)c1ccc(Cl)cc1	3.73 µM	15.1 µM	–	–
COc1ccc2c(c1)c(CC(=O)NS(=O)(=O)c1ccc(C(C)=O)cc1)cn2C(=O)c1ccc(Cl)cc1	2.09 µM	17.3 µM	–	–
COc1ccc2c(c1)c(CC(=O)NS(=O)(=O)c1ccc(C(C)C)cc1)cn2C(=O)c1ccc(Cl)cc1	6.34 µM	7.9 µM	–	–
COc1ccc(S(=O)(=O)NC(=O)Cc2cn(C(=O)c3ccc(Cl)cc3)c3ccc(OC)cc23)cc1	5.8 µM	39.9 µM	–	–
COc1ccc2c(c1)c(CC(=O)NS(=O)(=O)c1ccc(F)cc1)cn2C(=O)c1ccc(Cl)cc1	7.86 µM	39.9 µM	–	–
COc1ccc2c(c1)c(CC(=O)NS(=O)(=O)c1ccc(Oc3ccccc3)cc1)cn2C(=O)c1ccc(Cl)cc1	2.52 µM	–	–	–
COc1ccc2c(c1)c(CC(=O)NS(=O)(=O)c1ccc(C#N)cc1)cn2C(=O)c1ccc(Cl)cc1	1.11 µM	33 µM	–	–
COc1ccc2c(c1)c(CC(=O)NS(=O)(=O)c1ccc(Br)cc1)cn2C(=O)c1ccc(Cl)cc1	3.97 µM	39.9 µM	–	–
COc1ccc2c(c1)c(CC(=O)NS(=O)(=O)c1cc(C(F)(F)F)ccc1C(F)(F)F)cn2C(=O)c1ccc(Cl)cc1	1.94 µM	19.3 µM	–	–
CCC(=O)Cc1cn(C(=O)O)c2ccc(OC)cc12	2.4 µM	100 µM	–	–
CCC(=O)Cc1cn(C(=O)OC)c2ccc(OC)cc12	22.8 µM	> 100 µM	–	–
COc1ccc2c(c1)c(C)c(CC(C)(C)C(=O)O)n2C(=O)c1ccc(Cl)cc1	0.12 µM	9.82 µM	–	–
COc1ccc2c(c1)c(C)c(CC(C)C(=O)NS(C)(=O)=O)n2C(=O)c1ccc(Cl)cc1 (configuration not stated)	5.53 µM	116 µM	–	–
COc1ccc2c(c1)c(C)c(CCC(=O)NS(=O)(=O)c1ccc(C)cc1)n2C(=O)c1ccc(Cl)cc1	3.11 µM	12.3 µM	–	–
COc1ccc2c(c1)c(C)c(CCC(=O)NS(=O)(=O)c1ccc3ccccc3c1)n2C(=O)c1ccc(Cl)cc1	2.54 µM	72.3 µM	–	–
COc1ccc2c(c1)c(C)c(CCC(=O)NS(=O)(=O)c1ccccc1C)n2C(=O)c1ccc(Cl)cc1	3.25 µM	21.1 µM	–	–
COc1ccc2c(c1)c(C)c(CCC(=O)NS(=O)(=O)c1ccc(C(F)(F)F)cc1)n2C(=O)c1ccc(Cl)cc1	1.11 µM	33.7 µM	–	–
COc1ccc2c(c1)c(C)c(CCC(=O)NS(=O)(=O)c1ccc(OC(F)(F)F)cc1)n2C(=O)c1ccc(Cl)cc1	2.5 µM	40.4 µM	–	–
COc1ccc2c(c1)c(C)c(CCC(=O)NS(=O)(=O)c1ccc(C(C)=O)cc1)n2C(=O)c1ccc(Cl)cc1	2.65 µM	27.4 µM	–	–
COc1ccc2c(c1)c(C)c(CCC(=O)NS(=O)(=O)c1ccc(C(C)C)cc1)n2C(=O)c1ccc(Cl)cc1	4.69 µM	55.3 µM	–	–
COc1ccc2c(c1)c1c(n2C(=O)c2cccc(C(F)(F)F)c2)CCC(C(=O)O)C1 (configuration not stated)	0.279 µM	100 µM	–	–
COc1ccc2c(c1)c1c(n2C(=O)c2ccc(Cl)cc2)CCC(C(=O)NS(C)(=O)=O)C1 (configuration not stated)	5.07 µM	> 100 µM	–	–
COc1ccc2c(c1)c1c(n2C(=O)c2ccc(Cl)cc2)CC(C(=O)O)CC1 (configuration not stated)	0.34 µM	48.2 µM	–	–
COC(=O)Cc1c(C)n(C(=O)c2ccc(Cl)cc2)c2ccc(OC)cc12	5.67 µM	> 100 µM	–	–
COc1ccc2c(c1)c(C)c(CC(C)C(=O)O)n2C(=O)c1ccc(Cl)cc1 (racemic)	0.29 µM	12.3 µM	–	–
COc1ccc2[nH]c(C)c(CC(=O)O)c2c1 [DESCHLOROBENZOYL INDOMETHACIN]	> 100 µM	100 µM	–	–
